In patent US20240294519A1, “PYRROLO[2,3-b]PYRIDINE PGDH INHIBITORS AND METHODS OF MAKING AND USING” (EPIRIUM BIO INC., priority 2021, published 2024):

Tests used:
[1] = biological target: T1, 15-PGDH/HPGD (Homo sapiens, UniProt P15428); experiment: hPGDH inhibitor screening biochemical assay; settings: 10 nM enzyme, 15 μM PGE2, 0.25 mM NAD, fluorescence ex/em 340/485 nm
T1 construct: purchased R&D System 5660-DH
T1 sequence (P15428 1-266): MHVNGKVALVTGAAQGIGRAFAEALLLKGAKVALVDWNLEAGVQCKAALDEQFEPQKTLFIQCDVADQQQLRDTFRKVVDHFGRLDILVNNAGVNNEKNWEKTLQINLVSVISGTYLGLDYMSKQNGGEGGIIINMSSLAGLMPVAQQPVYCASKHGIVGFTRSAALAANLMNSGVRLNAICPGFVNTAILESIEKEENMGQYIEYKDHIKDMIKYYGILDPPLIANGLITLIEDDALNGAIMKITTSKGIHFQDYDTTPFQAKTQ
Protocol: A hydroxyprostaglandin dehydrogenase inhibition screening biochemical assay can be performed to assess the synthesized inhibitors provided herein. Provided herein is an exemplary biochemical assay for hPGDH inhibitor screening.
The in vitro biochemical assay can be performed in white, 384 plates in total 20 μl reaction volume consisting of 10 nM of 15-PGDH/HPGD (R&D System #5660-DH), 15 μM Prostaglandin E2 (Sigma, C8 t #P5640-10 MG) and 0.25 mM β-Nicotinamide adenine dinucleotide sodium salt (Sigma, C8 t #N0632-5G) made in reaction buffer (50 mM Tris-HCl, pH 7.5, 0.01% Tween 20) at 10-point dose response curve for test/tool compounds. Briefly, 5 μl (4×) of compounds solution and 5 μl (final concentration, 10 nM) of enzyme solution is added to white 384 well plates and incubated for 10 mins at 37° C. 5 μl (4×) of […] and 5 μl (4×) of β-Nicotinamide adenine dinucleotide sodium salt is added to the wells and incubated for 10 mins at room temperature. Fluorescence is recorded at ex/em=340 nm/485 nm. The percentage (%) inhibition of enzyme activity was determined relative to positive control (1% DMSO) and IC50 was calculated using GraphPad prism software (four parameter-variable slope equation).

[2] = biological target: T2, 15-PGDH (Homo sapiens, UniProt P15428); experiment: A549 cell based assay: PGE2 in supernatant after IL-1β (HTRF); settings: A549 cells, fold induction of PGE2, IL-1β plus test article versus IL-1β only
T2 construct: 15-PGDH is highly expressed in resting human lung adenocarcinoma cells (A549); endogenous in cells; host or cells: A549
T2 sequence (P15428 1-266): T1 sequence (P15428 1-266)
Protocol: Cell Based Assay: 15-PGDH is highly expressed in resting human lung adenocarcinoma cells (A549) (Tong et al., 2006), and this cell line was used to assess 15-PGDH inhibition by MF-300Na in vitro.
In this assay, A549 cells are treated with interleukin (IL) 1β, which induces the expression of cycloxygenase-2 and the synthesis of PGE2 (Tong et al., 2006). In the studies evaluating test articles, thirty thousand A549 cells were seeded in 100 μL F12K completed media and incubated for 24 hours at 37° C. with 5% CO2 before being serum-starved for 24 hours. On the day of the experiment, buffer was changed to complete medium, and cells were incubated for 30 minutes with compounds prior to the addition of IL-1β (final concentration of 0.1-0.25 ng/mL) overnight at 37° C. with 5% CO2. Each concentration was run in triplicate. […] The PGE2 in the supernatant was detected and quantified using a Cisbio HTRF technology (Homogeneous Time-Resolved Fluorescence) kit (62P2APEG-62P2APEH) according to the manufacturer's recommendations, quantifying the fold induction of PGE2 of cells treated with IL-1β plus test article, versus treatment with IL-1β only.

| IC50 [1] [nM] | PGE2 - HTRF over IL-β induction at 0.001 μM [2] | PGE2 - HTRF over IL-β induction at 0.01 μM [2] | PGE2 - HTRF over IL-β induction at 0.1 μM [2] | PGE2 - HTRF over IL-β induction at 1 μM [2] | Structure (SMILES) |
| --- | --- | --- | --- | --- | --- |
| < 100 | 3.59 | 4.44 | 4.8 | 4.34 | CCC1CCCN(C(=O)c2cnc3c(ccn3-c3cncc(NC(=O)OC)c3)c2)C1 (stereo in doubt) [Compound B-70, methyl(S)-(5-(5-(3-ethylpiperidine-1-carbonyl)-1H-pyrrolo[2,3-b]pyridin-1-yl)pyridin-3-yl)carbamate] |
| < 100 | 2.7 | 5.52 | 5.36 | 4.19 | COC(=O)Nc1cncc(-n2ccc3cc(C(=O)N4CCCC(F)(F)C4)cnc32)c1 [Compound B-82] |
| < 100 | 1.4 | 2.64 | 2.84 | 4.39 | CCC1CCCN(C(=O)c2cnc3c(ccn3-c3cncc(NC(=O)OC)c3)c2)C1 (centres unmarked) [Compound B-83] |
| < 100 | 1.94 | 3.38 | 4.02 | 5.76 | COC(=O)Nc1cncc(-n2ccc3cc(C(=O)N4CCCC(C(F)(F)F)C4)cnc32)c1 (centres unmarked) [Compound B-84] |
|  | 0.79 | 1.78 | 4.49 | 5.26 | C[C@H]1CCCN(C(=O)c2cnc3c(ccn3-c3cnn(CC(F)(F)F)c3)c2)C1 [Compound B-100] |
|  | 1.15 | 1.34 | 5.1 | 6.3 | Cc1cn2cc(-n3ccc4cc(C(=O)N5CCC(F)(F)CC5)cnc43)ccc2n1 [Compound B-103] |
|  | 1.57 | 2.98 | 3.46 | 3.26 | C[C@H]1CCCN(C(=O)c2cnc3c(ccn3-c3ccc4nc(N(C)C)nn4c3)c2)C1 [Compound B-108] |
|  | 1.34 | 1.28 | 4.15 | 6.26 | Cc1nc2ccc(-n3ccc4cc(C(=O)N5CCC(F)(F)CC5)cnc43)cn2n1 [Compound B-120] |
| < 100 |  |  |  |  | O=C(c1cnc2c(ccn2-c2cc(Cl)cc(-c3nnc[nH]3)c2)c1)N1CCC[C@H](O)C1 [Compound B-265] |
| < 100 |  |  |  |  | O=C(c1cnc2c(ccn2-c2cccc(-c3ncc[nH]3)c2)c1)N1CCC[C@@H](O)C1 [Compound B-269] |
| < 100 |  |  |  |  | Cc1cc(-n2ccc3cc(C(=O)N4CCC(F)(F)CC4)cnc32)ccc1C(=O)O [Compound B-270] |
| < 100 |  |  |  |  | CCOC(=O)Nc1cncc(-n2ccc3cc([S+]([O-])C4CC4)cnc32)c1 (centres unmarked) [Compound B-315] |
| < 100 |  |  |  |  | CCOC(=O)Nc1cncc(-n2ccc3cc([S+]([O-])C4CCCC4)cnc32)c1 (centres unmarked) [Compound B-316] |

More lines, now with the values behind:

| Structure (SMILES) | IC50 [1] [nM] | PGE2 - HTRF over IL-β induction at 0.001 μM [2] | PGE2 - HTRF over IL-β induction at 0.01 μM [2] | PGE2 - HTRF over IL-β induction at 0.1 μM [2] | PGE2 - HTRF over IL-β induction at 1 μM [2] |
| --- | --- | --- | --- | --- | --- |
| O=C(c1cnc2c(ccn2-c2cccc(-c3nc[nH]n3)c2)c1)N1CCC(F)(F)CC1 [Compound B-36, (1-(3-(4H-1,2,4-triazol-3-yl)phenyl)-1H-pyrrolo[2,3-b]pyridin-5-yl)(4,4-difluoropiperidin-1-yl)methanone] | < 100 | 2.93 | 4.16 | 3.31 | 4.33 |
| O=C(c1cnc2c(ccn2-c2ccc(-c3nnc(C4CC4)[nH]3)cc2)c1)N1CCC(F)(F)CC1 [Compound B-72] | < 100 | 2.17 | 3.03 | 3.96 | 3.96 |
| O=C(c1cnc2c(ccn2-c2ccc(N3CCOC3=O)nc2)c1)N1CCC[C@H](C(F)(F)F)C1 [Compound B-80] | < 100 | 2.36 | 2.83 | 2.86 | 2.4 |
| O=C(c1cnc2c(ccn2-c2ccc(N3CCOC3=O)nc2)c1)N1CCC[C@@H](C(F)(F)F)C1 [Compound B-81] | 100 to 1000 | 0.51 | 1.08 | 2.21 | 1.92 |
| O=C(c1cnc2c(ccn2-c2ccc3nc(N4CCOCC4)nn3c2)c1)N1CCC(F)(F)CC1 [Compound B-97, (4,4-difluoropiperidin-1-yl)(1-(2-morpholino [1,2,4]triazolo [1,5-a]pyridin-6-yl)-1H-pyrrolo [2,3-b]pyridin-5-yl)methanone] |  | 1.08 | 2.42 | 4.98 | 5.37 |
| O=C(c1cnc2c(ccn2-c2ccc(N3C(=O)CCC3=O)cc2)c1)N1CCC(F)(F)CC1 [Compound B-106] |  | 0.90 | 0.81 | 0.86 | 2.8 |
| O=C(c1cnc2c(ccn2-c2ccc(-n3cnnc3)cc2)c1)N1CCC(F)(F)CC1 [Compound B-107] |  | 1.73 | 1.31 | 2.12 | 3.51 |
| O=C(c1cnc2c(ccn2-c2ccc(N3CCOC3=O)nc2)c1)N1CCCC(F)(F)C1 [Compound B-115] |  | 4.36 | 3.07 | 4.92 | 5.24 |
| O=C(O)c1ccc(-n2ccc3cc(C(=O)N4CCC(F)(F)CC4)cnc32)s1 [Compound B-118] |  | 1.48 | 1.55 | 1 | 1.02 |
| O=C(c1cnc2c(ccn2-c2ccc(-c3nc[nH]n3)s2)c1)N1CCC(F)(F)CC1 [Compound B-119] |  | 1.01 | 1.2 | 2.87 | 3.06 |
| COc1cc(-n2ccc3cc(C(=O)N4CCC(F)(F)CC4)cnc32)ccc1-c1nnc[nH]1 [Compound B-266] | < 100 |  |  |  |  |
| O=C(c1cnc2c(ccn2-c2ccc(-c3nnc[nH]3)cc2F)c1)N1CCC(F)(F)CC1 [Compound B-267] | < 100 |  |  |  |  |
| O=C(c1cnc2c(ccn2-c2ccc(-c3nnc[nH]3)c(F)c2)c1)N1CC[S+]([O-])CC1 [Compound B-268] | < 100 |  |  |  |  |
| Cc1ccc(-c2nnc[nH]2)cc1-n1ccc2cc(C(=O)N3CCC(F)(F)CC3)cnc21 [Compound B-271] | < 100 |  |  |  |  |
| O=C(c1cnc2c(ccn2-c2cc(-c3nnc[nH]3)ccc2F)c1)N1CCC(F)(F)CC1 [Compound B-272] | < 100 |  |  |  |  |
| N#Cc1cc(-n2ccc3cc(C(=O)N4CCC(F)(F)CC4)cnc32)ccc1-c1nnc[nH]1 [Compound B-273] | < 100 |  |  |  |  |
| N#Cc1cc(-c2nnc[nH]2)cc(-n2ccc3cc(C(=O)N4CCC(F)(F)CC4)cnc32)c1 [Compound B-274] | < 100 |  |  |  |  |
